Measurements published in PMC9482650, “Quantitative fragmentomics allow affinity mapping of interactomes” (Nature Communications, 2022).
pKd: −log10 of the molar value. Like-named read-outs stand apart in the source and are kept apart here. One block for each sequence: values may come before it. Ends that are not written are not given here.

What was measured:
TX1BP3 PDZ = target: T1, TX1BP3 PDZ (Homo sapiens, UniProt O14907); assay: Holdup assay; format: binding
T1 sequence (O14907 15-112 limits assumed): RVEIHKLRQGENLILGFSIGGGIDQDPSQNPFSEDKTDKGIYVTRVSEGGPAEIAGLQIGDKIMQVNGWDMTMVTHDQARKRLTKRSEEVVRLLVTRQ

SNX27 PDZ = SNX27 PDZ (Homo sapiens, UniProt Q96L92); assay: Holdup assay; format: binding
DLG1_2 PDZ = DLG1_2 PDZ (Homo sapiens, UniProt Q12959); assay: Holdup assay; format: binding
DLG1_1 PDZ = DLG1_1 PDZ (Homo sapiens, UniProt Q12959); assay: Holdup assay; format: binding
SCRIB_1 PDZ = SCRIB_1 PDZ (Homo sapiens, UniProt Q14160); assay: Holdup assay; format: binding
SCRIB_1 PDZ, sequence (Q14160 728-815 limits assumed): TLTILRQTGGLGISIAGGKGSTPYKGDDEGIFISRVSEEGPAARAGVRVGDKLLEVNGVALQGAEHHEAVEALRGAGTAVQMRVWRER

SYNJ2BP = assay: PBM-AP-MS from HaCat extract; format: binding, Homo sapiens; details: prey SYNJ2BP (P57105), PBM bait vs biotin control (Biot03)
SLC9A3R2 = assay: PBM-AP-MS from HaCat extract; format: binding, Homo sapiens; details: prey SLC9A3R2 (Q15599), PBM bait vs biotin control (Biot03)
CPVL = assay: PBM-AP-MS from HeLa extract; format: binding, Homo sapiens; details: prey CPVL (Q9H3G5), PBM bait vs biotin control
LIN7C [1] = assay: PBM-AP-MS from HeLa extract; format: binding, Homo sapiens; details: prey LIN7C (Q9NUP9), PBM bait vs biotin control
LIN7C [2] = assay: PBM-AP-MS from HaCat extract; format: binding, Homo sapiens; details: prey LIN7C (Q9NUP9), PBM bait vs biotin control (Biot03)
SNTB2 = assay: PBM-AP-MS from HeLa extract; format: binding, Homo sapiens; details: prey SNTB2 (Q13425), PBM bait vs biotin control
CASK [3] = assay: PBM-AP-MS from HaCat extract; format: binding, Homo sapiens; details: prey CASK (O14936), PBM bait vs biotin control (Biot03)
DLG1 = assay: PBM-AP-MS from Jurkat extract; format: binding, Homo sapiens; details: Jurkat lysate
Experimental: (§1) For PBM-AP-MS experiments, 30 μl streptavidin resin was mixed with biotin or peptide at 50–60 μM concentration in 6–6.5 resin volume for 60 min to achieve resin saturation. For PDZ-AP-MS experiments, 30 μl streptavidin resin was mixed with biotinylated MBP or MBP-PDZ at 40-50 μM concentration in >1000× resin volume for 60 min to achieve resin saturation. After saturation, resins were washed a single time (ten resin volume, holdup buffer), and were depleted with biotin (1 mM biotin, 5–10 resin volume, 10 min). Finally, resins were washed two times. 0.5 ml 2 mg/ml cell lysate was added to the dry resin (1 mg total input) and were incubated at 4 °C for 2 h. Then, the beads were washed three times with 10 resin volume buffer containing: 50 mM TRIS pH 8.5, 150 mM NaCl, 1% TritonX-100, 10× complete EDTA-free protease inhibitor cocktail, 2 mM EDTA, 1 mM TCEP. Then, the beads were washed two times with ten resin volume buffer containing: 50 mM TRIS pH 8.5, 150 mM NaCl, 1 mM TCEP. Finally, captured protein was eluted from the resin in two steps and the eluted fractions were pooled. For each elution the beads were incubated for 30 min with three resin volume buffer containing: 20 mM TRIS pH8.5, 100 mM NaCl, 500 μM TCEP, 8 M Urea. Between each step, the beads were separated by mild centrifugation and the supernatant was removed by gentle pipetting.
(§2) Proteins were identified by database searching using SequestHT (Thermo Fisher Scientific) with Proteome Discoverer 2.4 software (PD2.4, Thermo Fisher Scientific) on human FASTA database downloaded from SwissProt (reviewed, release 2020_11_27, 20304 entries, https://www.uniprot.org/). Precursor and fragment mass tolerances were set at 7 ppm and 0.6 Da respectively, and up to two missed cleavages were allowed. Oxidation (M, +15.995 Da) was set as variable modification, and Carbamidomethylation (C, +57.021 Da) as fixed modification. Peptides and proteins were filtered with a false discovery rate at 1%. Label-free quantification was based on the extracted ion chromatography intensity of the peptides. All samples were measured in technical triplicates. The measured extracted ion chromatogram (XIC) intensities were normalized based on median intensities of the entire dataset to correct minor loading differences. For statistical tests and enrichment calculations, not detectable intensity values were treated with an imputation method, where the missing values were replaced by random values similar to the 10% of the lowest intensity values present in the entire dataset. Unpaired two-tailed T-test, assuming equal variance, were performed on obtained log2 XIC intensities. The detection threshold for enriched proteins in AP-MS experiments were analyzed above twofold enrichment with <0.01 P value. Then, proteins with PDZ-domains or PBMs were extracted from the list of enriched proteins. In case only a specific isoform of the detected protein contains a PBM, the identified peptide fragments were manually checked to check which isoform(s) were most likely detected. All raw LC-MS/MS data (from 165 runs) have been deposited to the ProteomeXchange via the PRIDE database with identifier PXD027743.

SCRIB [4] = assay: PBM-AP-MS from Jurkat extract; format: binding, Homo sapiens; details: Jurkat lysate
Experimental: as §1, §2

CASK [5] = assay: PBM-AP-MS from Jurkat extract; format: binding, Homo sapiens; details: Jurkat lysate
Experimental: as §1, §2

LIN7C [6] = assay: PBM-AP-MS from Jurkat extract; format: binding, Homo sapiens; details: Jurkat lysate
Experimental: as §1, §2

MAGI1 = assay: PBM-AP-MS from Jurkat extract; format: binding, Homo sapiens; details: Jurkat lysate
Experimental: as §1, §2

PDZK1 = assay: PBM-AP-MS from HeLa extract; format: binding, Homo sapiens; details: prey PDZK1 (Q5T2W1), PBM bait vs biotin control
SCRIB [7] = assay: PBM-AP-MS from HeLa extract; format: binding, Homo sapiens; details: prey SCRIB (Q14160), PBM bait vs biotin control
MPP7 = assay: PBM-AP-MS from HaCat extract; format: binding, Homo sapiens; details: prey MPP7 (Q5T2T1), PBM bait vs biotin control (Biot03)
SCRIB2 PDZ = target: T2, SCRIB2 PDZ (Homo sapiens, UniProt Q14160); assay: Holdup assay; format: binding
T2 sequence (Q14160 862-950 limits assumed): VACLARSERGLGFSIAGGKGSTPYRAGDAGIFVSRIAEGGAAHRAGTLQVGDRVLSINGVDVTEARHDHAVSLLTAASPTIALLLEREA

[8] = PBM motif of the named protein vs TX1BP3 PDZ, read-out: pKd values – domain-motif, TX1BP3 (converted)
[9] = PBM motif of the named protein vs DLG1_2 PDZ, read-out: pKd values – domain-motif, DLG1_2 (converted)
[10] = PBM motif of the named protein vs DLG1_1 PDZ, read-out: pKd values – domain-motif, DLG1_1 (converted)
[11] = PBM motif of the named protein vs SCRIB_1 PDZ, read-out: pKd values – domain-motif, SCRIB_1 (converted)
[12] = fold enrichment of prey vs biotin control resin
[13] = prey enrichment on PBM bait resin vs biotin control resin, technical triplicates
[14] = PBM motif of the named protein vs SCRIB_2 PDZ, read-out: pKd values – domain-motif, SCRIB_2 (converted)

Sequence: KQVVPFSSSV [GDA]
Kd (TX1BP3 PDZ; [8]): 49 µM | pKd (SNX27 PDZ): 3.53 | Kd (DLG1_2 PDZ; [9]): 41.7 µM | Kd (DLG1_1 PDZ; [10]): 129 µM | Kd (SCRIB_1 PDZ; [11]): 309 µM

Sequence: PRVKPQRSKV [PPP1R13L]
Kd (TX1BP3 PDZ; [8]): 151 µM

Sequence: SSRTRRETQL [HPV16-E6]
Difference log2 (SYNJ2BP): 4.095 | Ratio bait/Biot03 (SYNJ2BP): 17.0893 | Difference log2 (SLC9A3R2): 3.853 | Ratio bait/Biot03 (SLC9A3R2): 14.4499 | Difference log2 (CPVL): 4.342 | Ratio bait/biot (CPVL): 20.282 | Difference log2 (LIN7C [1]): 7.182 | Ratio bait/biot (LIN7C [1]): 145.232 | Difference log2 (LIN7C [2]): 8.385 | Ratio bait/Biot03 (LIN7C [2]): 334.203 | Difference log2 (SNTB2): 5.25 | Ratio bait/biot (SNTB2): 38.0503 | Difference log2 (CASK [3]): 6.666 | Ratio bait/Biot03 (CASK [3]): 101.558 | Ratio bait/biot (DLG1; [12]): 502.402 | Difference log2 (DLG1; [13]): 8.9727 | Ratio bait/biot (SCRIB [4]; [12]): 256.729 | Difference log2 (SCRIB [4]; [13]): 8.0041 | Ratio bait/biot (CASK [5]; [12]): 11.3007 | Difference log2 (CASK [5]; [13]): 3.498 | Ratio bait/biot (LIN7C [6]; [12]): 32.0459 | Difference log2 (LIN7C [6]; [13]): 5.002 | Ratio bait/biot (MAGI1; [12]): 36.8169 | Difference log2 (MAGI1; [13]): 5.2023 | Difference log2 (PDZK1): 4.4 | Ratio bait/biot (PDZK1): 21.1168 | Difference log2 (SCRIB [7]): 7.71 | Ratio bait/biot (SCRIB [7]): 209.394 | Difference log2 (MPP7): 5.9997 | Ratio bait/Biot03 (MPP7): 63.9865

Sequence: TESNLQTSSC [CGN]
pKd (SNX27 PDZ): 4.65

Sequence: LESTTVGTSV [KARS1]
Kd (TX1BP3 PDZ; [8]): 251 µM | Kd (SCRIB2 PDZ; [14]): 34.7 µM | pKd (SNX27 PDZ): 4.45 | Kd (DLG1_2 PDZ; [9]): 45.7 µM | Kd (DLG1_1 PDZ; [10]): 53.7 µM | Kd (SCRIB_1 PDZ; [11]): 155 µM

More lines, now with the values ahead:

Kd (TX1BP3 PDZ; holdup affinity of the PBM peptide of the named protein, sheet PBMcomplexome, lower sub-table, 3.5 appears to be the floor for no detectable binding, read-out: affinity of PBM to TX1BP3 (pKd) (converted)): 1.26 µM | Kd (SCRIB2 PDZ; holdup affinity of the PBM peptide of the named protein, sheet PBMcomplexome, lower sub-table, 3.5 appears to be the floor for no detectable binding, read-out: affinity of PBM to SCRIB_2 (pKd) (converted)): 25.7 µM | pKd (SNX27 PDZ; holdup affinity of the PBM peptide of the named protein, sheet PBMcomplexome, lower sub-table): 4.80 | Kd (DLG1_2 PDZ; holdup affinity of the PBM peptide of the named protein, sheet PBMcomplexome, lower sub-table, 3.5 appears to be the floor for no detectable binding, read-out: affinity of PBM to DLG1_2 (pKd) (converted)): 22.4 µM | Kd (DLG1_1 PDZ; holdup affinity of the PBM peptide of the named protein, sheet PBMcomplexome, lower sub-table, 3.5 appears to be the floor for no detectable binding, read-out: affinity of PBM to DLG1_1 (pKd) (converted)): 49 µM | Kd (SCRIB_1 PDZ; holdup affinity of the PBM peptide of the named protein, sheet PBMcomplexome, lower sub-table, 3.5 appears to be the floor for no detectable binding, read-out: affinity of PBM to SCRIB_1 (pKd) (converted)): 17.8 µM
Sequence: PKRPFVESNV [TANC2]

Kd (TX1BP3 PDZ; [8]): 1.91 µM | Kd (SCRIB2 PDZ; [14]): 13.2 µM | pKd (SNX27 PDZ): 5.51 | Kd (DLG1_2 PDZ; [9]): 11 µM | Kd (DLG1_1 PDZ; [10]): 20.4 µM | Kd (SCRIB_1 PDZ; [11]): 6.31 µM
Sequence: PKRSFIESNV [TANC1]
